The term Ki denotes a measure of affinity in units of concentration, obtained from inhibition or displacement.

Drawing on patent publication US20090069300A1, “ISOQUINOLINYL AND ISOINDOLINYL DERIVATIVES AS HISTAMINE-3 ANTAGONISTS” (Wyeth, priority 2007, published 2009), this text covers Ki for 14 compounds.

Structures can show the parent of a compound that is named as a salt.

The target of the first assay is T1, Human Histamine H3 Receptor (Homo sapiens, UniProt Q9Y5N1).
T1 construct: expressed in transfected cells; host or cells: HEK293T (stably transfected; membranes prepared from the cells)
T1 sequence (Q9Y5N1 whole entry): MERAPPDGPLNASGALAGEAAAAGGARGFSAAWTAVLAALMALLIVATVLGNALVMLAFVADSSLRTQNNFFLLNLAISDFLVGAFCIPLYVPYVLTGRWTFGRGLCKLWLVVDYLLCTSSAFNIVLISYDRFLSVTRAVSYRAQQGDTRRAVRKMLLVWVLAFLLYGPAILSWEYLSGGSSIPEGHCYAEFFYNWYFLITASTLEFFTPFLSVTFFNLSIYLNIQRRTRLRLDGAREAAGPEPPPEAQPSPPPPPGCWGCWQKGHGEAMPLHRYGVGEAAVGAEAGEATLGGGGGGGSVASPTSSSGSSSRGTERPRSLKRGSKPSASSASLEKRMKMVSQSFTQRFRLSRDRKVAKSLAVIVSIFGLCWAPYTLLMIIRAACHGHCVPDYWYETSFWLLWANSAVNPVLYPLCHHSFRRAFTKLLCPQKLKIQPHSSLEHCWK
Briefly: Methyl histamine binding in human histamine H3 receptor cell line.
Conditions: not given
How it is done:
Evaluation of Methyl Histamine Binding in Human Histamine H3 Receptor Cell Line
The affinity of test compounds for the histamine 3 (H3) receptor is evaluated in the following manner. […] Cells are scraped from the plate, transferred to centrifuge tubes, washed one time in PBS by centrifugation in a Sorvall RT7 Plus centrifuge (2000 rpm 10 minutes, 4° C.). The resulting pellets are stored at −80° C. until ready for use. Cells are re-suspended in buffer (50 mM Tris pH=7.5) and placed in a Dounce homogenizer, douncing ten times to homogenize cells. The homogenate is spun down by centrifugation (Sorvall RT7 Plus, 1800 rpm 10 minutes, 4° C.). The supernatant is placed in a Corex tube and spun down by centrifugation (Sorvall RC 5c Plus, 17,000 rpm 20 minutes, 4° C.). The pellet is resuspended in buffer (50 mM Tris, pH 7.5). Protein concentration (ug/ul) is determined using the Micro-BCA Protein Determination. The binding assay is set up in a 96 well microtiter plate in a total volume of 250 uL. Non-specific binding is determined in the presence of 10 uM clobenpropit. The final radioligand concentration is 1 nM. The test compound is serially diluted using the Beckman Biomek2000 to a final approximate range of 100 uM to 100 pM. Membranes are suspended in buffer, homogenized in 2 bursts of ten seconds using a Vitris mechanical homogenizer set at power setting 5. Ten μg of membranes are added to each well. Following a one hour incubation at 30° C., the reaction is terminated by the addition of ice cold buffer and rapid filtration with a Packard Filtermate Harvester through a GF/B filter pre-soaked with 1% PEI for one hour. The plate is dried for one hour at 37° C. and 60 μL Microscint Scintillant is added to each well. The CPM per well is measured on a Packard Top Count NXT. Ki values are determined in nM. […] CPM values are expressed as % specific binding and plotted vs compound concentration. A curve is fitted using a four-parameter logistic fit and the IC50 value is determined. The Ki is calculated from this using the Cheng-Prusoff equation: […]=IC50/1+(L/Kd) where L=concentration of free radioligand used in the assay, and Kd is the dissociation constant of the radioligand for the receptor. L is determined for each experiment by counting an aliquot of the diluted radioligand (corresponding to that added to each well) and the Kd has previously been determined under identical conditions for this cell line/radioligand.
`O=C(NCCCl)c1ccc(-c2ccc3c(c2)CCN(CCN2CCCC2)C3=O)cc1` [Example 123, N-(2-chloroethyl)-4-[1-oxo-2-(2-pyrrolidin-1-ylethyl)-1,2,3,4-tetrahydroisoquinolin-6-yl]benzamide] came in with a Ki of less than 10 nM.

The assay is the same for the next values; noted with them: read-out: H3 Binding Ki.
For the compound `C[C@@H]1CCCN1CCN1CCc2cc(OCc3ccc(C#N)cc3)ccc2C1=O` [Example 120, (R)-4-((2-(2-(2-Methylpyrrolidin-1-yl)ethyl)-1-oxo-1,2,3,4-tetra-hydroisoquinolin-6-yloxy)methyl)benzonitrile hydrochloride], the inhibition constant (Ki) was less than 10 nM.

On to `C[C@@H]1CCCN1CCN1CCc2cc(C(=O)N3Cc4ccccc4C3)ccc2C1=O` [Example 152, 6-(1,3-dihydro-2H-isoindol-2-ylcarbonyl)-2-{2-[(2R)-2-methylpyrrolidin-1-yl]ethyl}-3,4-dihydroisoquinolin-1(2H)-one], for which the Ki is less than 10 nM.

With `C[C@@H]1CCCN1CCN1CCc2cc(-c3ccc4c(c3)CCNC4=O)ccc2C1=O` [Example 157, (R)-2-(2-(2-methylpyrrolidin-1-yl)ethyl)-3,3′,4,4′-tetrahydro-6,6′-biisoquinoline-1,1′(2H,2′H-dione hydrochloride], the Ki is less than 10 nM.

For `C[C@@H]1CCCN1CCN1CCc2c(cccc2-c2cccc(C#N)c2)C1=O` [Example 27, 3-(2-{2-[(2R)-2-methylpyrrolidin-1-yl]ethyl}-1-oxo-1,2,3,4-tetrahydroisoquinolin-5-yl)benzonitrile], the Ki lay in the range of 50.1 to 100 nM.

For `O=C1c2ccc(-c3cccc(F)c3)cc2CCN1CCN1CCCC1` [Example 18, 6-(3-fluorophenyl)-2-(2-pyrrolidin-1-ylethyl)-3,4-dihydroisoquinolin-1(2H)-one], the Ki lay in the range of 10.1 to 25 nM.

Regarding `NC(=O)c1ccc(-c2ccc3c(c2)CCN(CCN2CCCC2)C3=O)cc1` [Example 67, 4-[1-oxo-2-(2-pyrrolidin-1-ylethyl)-1,2,3,4-tetrahydroisoquinolin-6-yl]benzamide], the Ki is less than 10 nM.

For the compound `O=C(c1ccc(-c2ccc3c(c2)CCN(CCN2CCCC2)C3)cc1)N1CCCC1` [Example 184, 6-[4-(pyrrolidin-1-ylcarbonyl)phenyl]-2-(2-pyrrolidin-1-ylethyl)-1,2,3,4-tetrahydroisoquinoline], the Ki was less than 10 nM.

Turning to `O=C(NCC1CC1)c1ccc(-c2ccc3c(c2)CCN(CCN2CCCC2)C3=O)cc1` [Example 60, N-(cyclopropylmethyl)-4-[1-oxo-2-(2-pyrrolidin-1-ylethyl)-1,2,3,4-tetrahydroiso-quinolin-6-yl]benzamide], the Ki is less than 10 nM.

As for `O=C(Nc1nccs1)c1ccc(-c2ccc3c(c2)CCN(CCN2CCCC2)C3=O)cc1` [Example 130, 4-[1-oxo-2-(2-pyrrolidin-1-ylethyl)-1,2,3,4-tetrahydroisoquinolin-6-yl]-N-1,3-thiazol-2-ylbenzamide], the Ki is less than 10 nM.

With `N#Cc1ccc(-c2ccc3c(c2)CCN(CCCN2CCCC2)C3=O)cc1` [Example 32, 4-[1-oxo-2-(3-pyrrolidin-1-ylpropyl)-1,2,3,4-tetrahydroisoquinolin-6-yl]benzonitrile], the Ki is less than 10 nM.

Take `O=C(c1ccc(-c2ccc3c(c2)CCN(CCN2CCCC2)C3)cc1)N1CCOCC1` [Example 186, 6-[4-(morpholin-4-ylcarbonyl)phenyl]-2-(2-pyrrolidin-1-ylethyl)-1,2,3,4-tetrahydroisoquinoline]: the inhibition constant (Ki) was less than 10 nM.

Regarding `O=C(NCc1cccs1)c1ccc(-c2ccc3c(c2)CCN(CCN2CCCC2)C3=O)cc1` [Example 121, 4-[1-oxo-2-(2-pyrrolidin-1-ylethyl)-1,2,3,4-tetrahydroisoquinolin-6-yl]-N-(2-thienylmethyl)benzamide], the Ki is less than 10 nM.

`N#Cc1ccc(-c2ccc3c(c2)CCN(CCCN2CCCCC2)C3=O)cc1` [Example 45, 4-[1-oxo-2-(3-piperidin-1-ylpropyl)-1,2,3,4-tetrahydroisoquinolin-6-yl]benzonitrile hydrochloride]: the Ki lay within 10.1 to 25 nM.
